In US6403626B1, “Benzimidazole derivatives” (Synaptic Pharmaceutical Corporation, priority 1994, dated 2002):
Like-named read-outs stand apart in the source and are kept apart here.

Columns and labels:
[1] = target: T1, α2C Human Adrenergic Receptor (Homo sapiens, UniProt P18825); format: cell-based; set-up: The entire coding region of α2C (1383 bp), including 2 bp of 5′ UT and 400 bp of 3′ UT; expressed in transfected cells; host or cells: LM(tk-) cells; conditions: for I.A Alpha-2 C: functional cAMP assay
T1 sequence (P18825 1-462): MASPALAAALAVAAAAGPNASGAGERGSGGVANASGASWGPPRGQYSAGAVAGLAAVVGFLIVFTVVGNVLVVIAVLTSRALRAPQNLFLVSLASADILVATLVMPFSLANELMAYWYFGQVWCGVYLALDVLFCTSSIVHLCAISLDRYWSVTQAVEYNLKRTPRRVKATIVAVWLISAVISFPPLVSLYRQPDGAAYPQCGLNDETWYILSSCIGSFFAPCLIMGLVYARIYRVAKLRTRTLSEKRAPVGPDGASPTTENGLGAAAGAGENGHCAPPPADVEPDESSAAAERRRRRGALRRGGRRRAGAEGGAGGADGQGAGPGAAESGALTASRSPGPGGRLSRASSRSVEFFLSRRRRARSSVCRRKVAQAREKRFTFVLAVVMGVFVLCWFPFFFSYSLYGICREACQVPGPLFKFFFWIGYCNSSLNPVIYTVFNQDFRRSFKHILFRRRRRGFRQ

[2] = target: T2, α2B Human Adrenergic Receptor (Homo sapiens, UniProt P18089); assay: Equilibrium competition binding, [3H] rauwolscine, membranes of transfected Y-1 cells
T2 construct: expressed in transfected cells; host or cells: Y-1 cells
T2 sequence (P18089 1-450): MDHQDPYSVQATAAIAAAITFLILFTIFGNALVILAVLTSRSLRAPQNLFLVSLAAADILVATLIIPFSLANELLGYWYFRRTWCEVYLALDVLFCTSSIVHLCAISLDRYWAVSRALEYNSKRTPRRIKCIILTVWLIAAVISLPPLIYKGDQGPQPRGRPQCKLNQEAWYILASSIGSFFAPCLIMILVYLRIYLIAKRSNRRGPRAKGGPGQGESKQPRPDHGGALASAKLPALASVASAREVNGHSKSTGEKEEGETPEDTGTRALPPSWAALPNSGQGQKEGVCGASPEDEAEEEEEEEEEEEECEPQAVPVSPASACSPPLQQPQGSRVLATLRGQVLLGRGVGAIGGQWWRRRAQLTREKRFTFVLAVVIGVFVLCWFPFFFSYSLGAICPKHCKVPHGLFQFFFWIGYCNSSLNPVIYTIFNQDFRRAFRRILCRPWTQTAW

[3] = target: T3, α1C Human Adrenergic Receptor (Homo sapiens, UniProt P35348); assay: Equilibrium competition binding, [3H] prazosin, membranes of transfected LM(tk-) cells
T3 construct: expressed in transfected cells; host or cells: LM(tk-) cells
T3 sequence (P35348 1-466): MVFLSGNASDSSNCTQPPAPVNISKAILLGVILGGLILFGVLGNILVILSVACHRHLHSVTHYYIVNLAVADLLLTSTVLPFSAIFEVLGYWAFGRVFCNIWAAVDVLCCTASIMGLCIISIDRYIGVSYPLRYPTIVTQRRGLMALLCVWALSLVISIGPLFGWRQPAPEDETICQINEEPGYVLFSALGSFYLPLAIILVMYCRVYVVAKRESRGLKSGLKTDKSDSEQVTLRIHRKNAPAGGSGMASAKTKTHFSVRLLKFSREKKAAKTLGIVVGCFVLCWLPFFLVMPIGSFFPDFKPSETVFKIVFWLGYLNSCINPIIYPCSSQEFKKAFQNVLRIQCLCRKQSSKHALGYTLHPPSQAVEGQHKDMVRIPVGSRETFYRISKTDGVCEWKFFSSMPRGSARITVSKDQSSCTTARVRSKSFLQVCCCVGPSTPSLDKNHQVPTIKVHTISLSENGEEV
Protocol: Binding and functional assays were performed using stably transfected human alpha adrenergic receptors. Equilibrium competition binding assays were performed with membrane preparations from cultured LM(tk-) cells stably transfected with the cloned human adrenoceptor subtypes except for α2b, which was expressed in Y-1 cells, using [^3H] prazosin for α1 receptors and [^3H] rauwolscine for α2 receptors.
Transfected cells from culture flasks were scraped into 5 ml of 5 mM Tris-HCl, 5 mM EDTA, pH 7.5, and lysed by sonication. The cell lysates were centrifuged at 1000 rpm for 5 min at 4° C., and the supernatant was centrifuged at 30,000×g for 20 min at 4° C. The pellet was suspended in 50 mM Tris-HCl, 1 mM MgCl2, and 0.1% ascorbic acid at pH 7.5. Binding of α2 antagonist [^3H] rauwolscine ([…]) to membrane preparations of LM(tk-) cells was done in a final volume of 0.25 ml and incubated at 37° C. for 20 min. Nonspecific binding was determined in the presence of 10 μM phentolamine. The reaction was stopped by filtration through GF/B filters using a cell harvester.
The construct involved ligation three partial overlapping fragments: a 5′ 0.6 kb HincII genomic clone, a central 1.8 EcoRI hippocampal cDNA clone, and a 3′ 0.6 Kb PstI genomic clone. The hippocampal cDNA fragment overlaps with the 5′ and 3′ genomic clones so that the HincII and PstI sites at the 5 and 3′ ends of the cDNA clone, respectively, were utilized for ligation. This full-length clone was cloned into the KpnI site of the expression vector, using the 5′ and 3′ KpnI sites of the fragment, derived from vector (i.e., pBluescript) and 3′-untranslated sequences, respectively. Stable cell lines were selected as described above.

[4] = cloned human receptor, [3H] prazosin, read-out: pKi Alpha-1 C (converted)
[5] = inhibition of forskolin-stimulated cAMP, NA: Not Active, read-out: pEC50 Alpha-2 C (converted)
[6] = cloned human receptor, [3H] rauwolscine, read-out: pKi Alpha-2 B (converted)

SMILES	EC50 [1]	I.A Alpha-2 C [1]	Ki [2]	Ki [3, 4]	Ki [2, 6]	other results
c1nc2ccc(NC3=NCCN3)cc2[nH]1 [Example 1, 5-(2-Imidazolin-2-ylamino)Benzimidazole]	0.00275 µM	1.00	0.0741 µM	5.25 µM	–	–
Brc1c(NC2=NCCN2)ccc2nc[nH]c12 [Example 2, 4-Bromo-5-(2-imidazolin-2-ylamino)Benzimidazole]	–	1.00	–	–	0.0204 µM	EC50 [1, 5]: 0.117 µM; Ki [3]: 1.7 µM
Clc1c(NC2=NCCN2)ccc2nc[nH]c12 [Example 3, 4-Chloro-5-(2-imidazolin-2-ylamino)Benzimidazole]	0.000562 µM	1.00	–	1.91 µM	0.0155 µM	–
Cc1c(N=C2NCCN2)ccc2[nH]cnc12 [Example 4, 4-Methyl-5-(2-imidazolin-2-ylamino)Benzimidazole]	–	–	–	0.724 µM	0.00912 µM	EC50 [1, 5]: 0.000355 µM
Ic1c(NC2=NCCN2)ccc2nc[nH]c12 [Example 5, 4-Iodo-5-(2-imidazolin-2-ylamino)Benzimidazole]	0.00135 µM	1.00	0.0309 µM	2.24 µM	–	–
CCCc1c(NC2=NCCN2)ccc2nc[nH]c12 [Example 7, 4-n-Propyl-5-(2-imidazolin-2-ylamino)Benzimidazole]	0.00617 µM	1.00	–	2 µM	–	–
CCCCc1c(NC2=NCCN2)ccc2nc[nH]c12 [Example 8, 4-n-Butyl-5-(2-imidazolin-2-ylamino)Benzimidazole]	–	1.00	–	2 µM	0.0501 µM	–
Cn1cnc2cc(NC3=NCCN3)ccc21 [Example 9, 1-Methyl-5-(2-imidazolin-2-ylamino)Benzimidazole]	–	1.00	–	6.76 µM	0.0468 µM	–
Cn1cnc2c(Br)c(NC3=NCCN3)ccc21 [Example 10, 1-Methyl-4-bromo-5-(2-imidazolin-2-ylamino)Benzimidazole]	0.00234 µM	1.00	0.0282 µM	0.851 µM	–	–
Cn1cnc2ccc(NC3=NCCN3)c(Br)c21 [Example 12, 3-Methyl-4-bromo-5-(imidazolin-2-ylamino)Benzimidazole]	–	1.00	–	–	–	pEC50 Alpha-2 C ([1]; inhibition of forskolin-stimulated cAMP, NA: Not Active): 7.76; pKi Alpha-2 B ([2]; cloned human receptor, [3H] rauwolscine): 7.84; pKi Alpha-1 C ([3]; cloned human receptor, [3H] prazosin): 6.46
COc1ccc(Cn2cnc3c(Br)c(NC4=NCCN4)ccc32)cc1 [Example 36, 1-(4-Methoxybenzyl)-4-bromo-5-(2-imidazolin-2-ylamino)Benzimidazole]	–	–	–	–	0.107 µM	Ki [3]: 6.46 µM
OCCn1cnc2c(Br)c(NC3=NCCN3)ccc21 [Example 38, 1-(2-Hydroxyethyl)-4-bromo-5-(2-imidazolin-2-ylamino)Benzimidazole]	–	1.00	–	–	0.525 µM	EC50 [1, 5]: 0.363 µM; Ki [3]: 6.76 µM
Cc1nc2ccc(NC3=NCCN3)c(Br)c2[nH]1 [Example 42, 2-Methyl-4-bromo-5-(2-imidazolin-2-ylamino)Benzimidazole]	–	–	0.0234 µM	8.13 µM	–	–
CCc1nc2ccc(NC3=NCCN3)c(Br)c2[nH]1 [Example 43, 2-Ethyl-4-bromo-5-(2-imidazolin-2-ylamino)Benzimidazole]	–	0.90	0.0339 µM	2.14 µM	–	–
CC(C)c1nc2ccc(NC3=NCCN3)c(Br)c2[nH]1 [Example 44, 2-Isopropyl-4-bromo-5-(2-imidazolin-2-ylamino)Benzimidazole]	–	0.80	0.0468 µM	3.09 µM	–	EC50 [1, 5]: 0.182 µM
CC(C)(C)c1nc2ccc(NC3=NCCN3)c(Br)c2[nH]1 [Example 45, 2-tert-Butyl-4-bromo-5-(2-imidazolin-2-ylamino)Benzimidazole]	–	0.60	0.0832 µM	2.19 µM	–	–
FC(F)(F)c1nc2ccc(NC3=NCCN3)c(Br)c2[nH]1 [Example 46, 2-Trifluoromethyl-4-bromo-5-(2-imidazolin-2-ylamino)Benzimidazole]	–	0.90	0.105 µM	10.7 µM	–	–
Brc1c(NC2=NCCN2)ccc2nc(C(c3ccccc3)c3ccccc3)[nH]c12 [Example 48, 2-Diphenylmethyl-4-bromo-5-(2-imidazolin-2-ylamino)Benzimidazole]	–	0.60	–	0.12 µM	0.661 µM	EC50 [1, 5]: 0.00135 µM
Brc1cc2nc[nH]c2c(Br)c1NC1=NCCN1 [Example 50, 4,6-Dibromo-5-(2-imidazolin-2-ylamino)Benzimidazole]	0.0708 µM	1.00	0.00234 µM	0.776 µM	–	–
Clc1cc(NC2=NCCN2)cc2[nH]cnc12 [Example 53, 7-Chloro-5-(2-imidazolin-2-ylamino)Benzimidazole]	0.00107 µM	1.00	0.0182 µM	1 µM	–	–
CCCCc1cc(NC2=NCCN2)cc2[nH]cnc12 [Example 56, 7-Butyl-5-(2-imidazolin-2-ylamino)Benzimidazole]	–	1.00	–	0.589 µM	0.182 µM	–
Clc1cc(NC2=NCCN2)c(Br)c2[nH]cnc12 [Example 60, 4-Bromo-7-chloro-5-(2-imidazolin-2-ylamino)Benzimidazole]	0.000398 µM	1	0.000468 µM	0.479 µM	–	–
